Source: PMC6662706, “Short amylin receptor antagonist peptides improve memory deficits in Alzheimer’s disease mouse model” (Scientific Reports, 2019)
No end group written: not given here.

Legend:
[1] = In vitro proteolytic stability in human serum; assay type: in vitro ADME; conditions: 37°C, intact peptide at different time points estimated by RP-HPLC
Procedure: Subsequently, we investigated the proteolytic stability of R5, and R14 compared to AC253. […] By assessing the main degradation fragments for both peptides using MALDI-TOF, we found both peptides to be cleaved at the basic arginine amino acids.
Supplementary Figure S2: The comparison of bio-distribution for the fragments and their parent peptide. (A) Ex vivo fluorescence showing bio-distribution images for Cy5.5-R5, R14, AC253 in different organs at after a 2 h of a single ip injection of the peptides (0.1 mmol in 200µl saline). (B) Quantification of peptides fluorescence in each organ (n=3). (C) In vitro stability of R5, R14, and AC253 peptides in human serum compared with AC253 at 37°C. The amount of intact peptide in human serum at different time points was estimated using RP-HPLC.

[2] = Brain uptake of R5 compared with davalintide, wild-type and het CTR mice; assay type: in vivo, mouse; conditions: mouse, not told, ip
Procedure: For peptide R5 brain uptake in comparison to Davlintide, wild-type littermate (C57BL/6 background) mice and heterozygous CTR knockdown mice (50% CTR expression level compared to wild type control mice and presumably with 50% AMY receptor expression level) was used (n=5 in each group). Mouse brains were extracted after 2h from a single injection and fluorescence in brains was quantified as mentioned above.
Supplementary Figure S3: The comparison of brain permeability for R5 and Davalintide.

5XFAD mice = assay: Brain amyloid pathology and neuroinflammation markers in 5XFAD mice (thioflavin-S, Western blot); assay type: in vivo, mouse
Excerpt: We initiated treatment of 5XFAD and wild-type control mice at 6 month age at a time point when they had also developed very significant amyloid burden in addition to the spatial memory deficits noted above (Fig. 4A). […] There was significant reduction in the amyloid plaque numbers, and the overall amyloid burden (as judged by the area covered by plaques) in these brain regions in the peptide treated mice (Fig. 5B, p < 0.05). […] (Fig. 5C,D, p < 0.05).
After completion of treatments, the mouse brains were harvested and the right hemisphere was frozen for biochemical analysis (Western blot, ELISA), and the left hemisphere was fixed with PAF for further processed. The thicker brain sections were stained thioflavin-S for detecting Aβ plaques.
After completion of treatments, all mice were sacrificed with an overdose of isoflourane anesthetic, perfused transcardially with saline using a pump, and the brains were harvested. The right hemisphere was frozen for biochemical analysis (Western blot, ELISA), and the left hemisphere was fixed with PAF for 24 h at 4 C. These brain tissues were further processed with modified CLARITY protocol (http://www.chunglabresources.com/clarity/). Briefly, the fixed brain tissue was transferred to hydrogel monomer solution (4% acrylamide in PBS) at 4 C for 24 h, and subsequently to a 24-well plate, merged in fresh hydrogel solution and the tissue brought to 37 C till formation of the gel. Thick sagittal slices (400 μm) were cut on an HR2 Slicer (Sigman Electronic, Germany). The thicker brain sections were cleared with 8% SDS in PBS for 24 h, followed by 0.3% Triton X-100 in PBS for 24 h. Blocking the section in 2%BSA-10% goat serum for 4h. A modified thioflavin-S staining was used for detecting Aβ plaques. […] Images were visualized using fluorescence microscopy (Axioplan-2, Carl Zeiss Ltd). Amyloid plaque size and area were analyzed with Image J software.
Frozen brain tissues or cultured cells were homogenized in cold RIPA buffer with protease inhibitors and proteins were quantified with BCA assay (BioRad, Mississauga, ON, Canada). […]

[3] = 5 weeks ip, normalized to β-actin, n = 6, p < 0.05

SQELHRLQTYPR-NH2 [R5]
half-life [1]: 1 h | brain permeability, R5 versus davalintide [2]: greater brain permeability | amyloid proteins (Aβ, 6E10) in cortical tissue, Western blot, versus normal saline (5XFAD mice; [3]): significantly reduced | neuroinflammation markers CD68, NLPR3 and caspase-1, Western blot (5XFAD mice; [3]): significantly attenuated | amyloid pathology in the cortex, hippocampus and thalamus versus saline (5XFAD mice; ip three times a week for 5 weeks, thioflavin-S): significantly reduced amyloid pathology
